Laboratory results reported in patent publication US11479604B2, “Immunomodulatory peptides and methods for modulating the immune system in a subject” (Recepta Biopharma S.A., priority 2017, dated 2022).
Positions of bridges follow the written chain, without caps; N, C: chain ends. No end group written: not given here.

What was measured:
[1] = test system: B16F10-Nex2 melanoma cells; test: Syngeneic metastatic melanoma model, lung nodule count; format: in vivo, C57BL/6 mice; conditions: for activity against metastatic melanoma of scramble peptides: 300 μg (10 mg/kg) i.p., alternate days, 5 doses, lungs after 14 days; for antitumor activity (pulmonary nodules): alone, Rb9 300 μg 5 consecutive days, Imiquimod 50 μg 3 alternate days, CpG and Poly (I:C) two alternate days
Experimental: Male C57BL/6 mice, 6 to 8-week-old were obtained from the Center for Development of Experimental Models (CEDEME), Federal University of Sao Paulo (UNIFESP). For the in vivo metastatic model, C57BL/6 mice received one intravenous (i.v.) injection of 2×10^5 viable B16-F10-Next melanoma cells in 100 μL. […] The control group received 100 μL PBS. Twenty-two days later, mice (minimum n=3 per group) had their lungs harvested, and the number of macroscopic melanotic nodules were counted. The Ethical Committee of Federal University of São Paulo, Project no. 1234, 2011, approved all experiments with animals, according to International guidelines. For the subcutaneous model, mice were injected with 5×10^5 tumor cells suspended in 100 μL of PBS in the right flank via the subcutaneous route. The peptide (300 μg) was solubilized in 10 μL of distilled H2O and 90 μL of PBS and injected per mouse via the intraperitoneal route. The administration of the peptide was performed in 5 alternate days initiating one day after tumor challenge. Tumor longitudinal diameter (D) and transverse diameter (d) were measured every 2 days until the tumor volume reached 3,000 mm3. Animals were sacrificed when the allowed volume was reached. Volume was calculated using the formula v=Dd^2×0.52. Tumor Cell Growth In Vitro and In Vivo Details of the in vitro tumor cell growth, cytotoxicity tests, determination of viable cells and in vivo protection experiments with B16F10 cells in a mouse metastatic model are described in Polonelli et al. (PLoS One. 3(6):e2371, 2008) and Dobroff et al. (Transl. Onc., 3: 204-217, 2010).
6 to 8 Week-old C57BL/6 mice (n=5, per group) were intravenously challenged with 1×10^5 of syngeneic B16F10-Nex2 viable cells in 0.1 mL of RPMI medium without FBS, and treated on the next day with intraperitoneal doses of 300 μg (10 mg/kg) each, of Scr1, Scr2, Scr3 or Scr4 peptide or with the control vehicle (PBS) in alternate days, total of 5 doses. After 14 days, mice were euthanized, and lungs were harvested and assessed for metastatic colonization. The number of metastatic lesions was quantified using a stereo microscope (Nikon, Tokyo). The percentage of the tumor area/total area was also quantified by ImageJ software.
B16F10-Nex2 tumor cells (2×10^5) in RPMI (100 μl) were injected in both animal groups in the tail veins on day 0. Animals were sacrificed on day 22, or 10 days after the last administration of the peptide, and their lungs were examined for dark melanotic nodules.
C57Bl6 mice were intravenously challenged with 4×10^5 syngeneic B16F10-Nex2 cells in 0.1 ml of RPMI without FBS.
Mice were injected with 5×10^5 B16F10-Nex2 cells i.v. suspended in 100 μl PBS. […] Imiquimod at 50 μg/100 μl was injected i.p. in 3 alternate days; CpG ODN 1585, i.p., in two alternate days; and Poly (I:C), i.p., in two alternate days. After 15 days of tumor challenge, the animals were sacrificed, the lungs were removed and the pulmonary nodules were counted.

splenocytes = test: Splenocyte cytokine production in melanoma-bearing treated mice (ELISA); format: in vivo; conditions: 300 μg i.p. 5 consecutive days
Experimental: Mice were challenged with 5×10^5 B16F10-Nex2 cells via the i.v. route. […] Peptides at 300 μg solubilized in 10 μl distilled H2O and 90 μl of PBS were injected via i.p. route per animal, for 5 consecutive days initiating one day after tumor cell challenge. Seventeen days after tumor challenge mice were sacrificed and spleens were removed. Splenocytes after incubation in hemolysis buffer were suspended in R10 medium and plated in 6-well plates and 10^6 cells/well. Cells were incubated for 72 h with or without tumor cell lysate (from 10^5 B16F10-Nex2 cells) in triplicate. The supernatants were collected, and cytokines measured by ELISA (FIG. 11).

[2] = test system: LPS stimulated DCs characterized by CD11c+ MHC-II+; test: Co-stimulatory markers of LPS stimulated murine bone-marrow DCs; format: cell-based
Source text: Rb9 immunomodulation of murine bone-marrow dendritic cells (DCs) was also examined focusing on co-stimulatory markers.

[3] = test system: B16F10-Nex2 melanoma cells; test: Prophylactic adoptive transfer of peptide-stimulated dendritic cells, metastatic melanoma; format: in vivo, syngeneic mice; conditions: DCs incubated with 50 μg/ml peptide, with or without tumor cell lysate; s.c.; tumor challenge day 14, count day 29
Experimental: DCs were obtained from the bone marrow of 6 to 8-week-old C57Bl6 mice. Briefly, femora and tibiae from mice were removed and stripped of muscles and tendons; both bone ends were cut, and bone marrow was extracted by placing the bone pieces into 1-ml tips, which in turn were inserted into 15-ml tubes and centrifuged for 10 minutes at 1500 rpm. Cells were resuspended in DMEM and cell clusters were dissociated by repeated pipetting. The total bone marrow cells were cultured in 100-mm treated tissue culture dish in 10 ml of R10 medium (DMEM medium supplemented with 2 mM glutamine, 10,000 U/ml penicillin, 10 mg/ml streptomycin, 50 μM 2-mercaptoethanol, 1 mM sodium pyruvate, MEM-nonessential aminoacids, MEM Vitamin solution, 10% heat-inactivated fetal bovine serum and GM-CSF (20 ng/ml) and IL-4 (40 ng/ml). Fresh medium (3 ml) with GM-CSF (200 ng/ml) and IL-4 (400 ng/ml) was added every 3 days. On day 7, adherent cells, that were harvested using PBS 2 mM EDTA, together with the non-adherent cells were pooled and used as the starting cell source for the experiments. BMDC Protocol 2
DCs were inoculated s.c. in syngeneic mice. On day 14, mice were inoculated i.v. with melanoma tumor cells (5×10^5 cells) and on day 29, the lung melanotic nodules were counted.

CD11c+ cells = test: TGF-beta1 ELISA of CD11c+ cells from lymphoid organs of melanoma-bearing treated mice; format: in vivo, C57Bl6 mice; conditions: 300 μg/dose i.p., day 17
Experimental: Animals were sacrificed on day 17 and their lungs, cervical and axillary lymph nodes and spleen were processed for examination. Lymph nodes and spleen were macerated separately, DMEM was added and passed through a cell strainer. CD11c+ cells were isolated using mouse CD11c+ beads and magnetic sorting. Cells were suspended in R10 medium and plated in […] at 10^6 cells/well. Cells were incubated for 24 h with or without tumor cell lysate (B16F10 stimulus). The supernatant was used in a TGF-beta1 ELISA test.

[4] = test system: T lymphocytes of lungs, spleen and lymph nodes; test: Flow cytometry of Treg, T-CD4+ and T-CD8+ cells after prophylactic DC protocol; format: in vivo, mice; conditions: spleen and lymph nodes (except lungs), day 29, DCs stimulated by peptide
Experimental: On day 14, mice were inoculated i.v. with B16F10.Nex2 melanoma tumor cells and on day 29, lungs, spleen and cervical and axillary lymph nodes were examined for CD3+ cells, and the proportion of T-CD4+ and T-CD8+ cells.
The lungs were incubated with 2 mg/ml of collagenase for 40 min at 37° C. before maceration. The cell suspension was incubated with cold hemolytic buffer for 1 min and then centrifuged. The pellet was suspended with RPMI medium and counted. 1×10^6 Cells of each group were processed and stained using the Treg Detection Kit (Miltenyi Biotec, Cambridge, USA). Lymphocytes were characterized using anti-CD4 (FITC), anti-CD25 (PE) and anti-Foxp3 (APC). Samples were analyzed by flow cytometry using FACSCantoII (Becton Dickinson, San Jose, Calif., USA). Acquired data were analyzed using the FlowJo V10 (TreeStar Inc., Ashland, Oreg., USA). The percentages of Foxp3^+ in CD4^+CD25^+ lymphocytes are indicated.
The cell suspension was incubated with cold hemolytic buffer for 1 min and then centrifuged. The pellet was suspended with RPMI medium and counted. 1×10^6 Cells of each group were stained with anti-CD3 (PE) and anti-CD4 (FITC) or anti-CD3 (PE) and anti-CD8 (FITC). All antibodies used were purchase from Miltenyi Biotec, Cambridge, USA. Samples were analyzed by flow cytometry using FACSCantoII (Becton Dickinson, San Jose, Calif., USA). Acquired data were analyzed using the FlowJo V10 (TreeStar Inc., Ashland, Oreg., USA). The percentages of CD4^+ or CD8^+ in CD3^+ lymphocytes are indicated.

[5] = test system: CD11c+, MHC II+ bone marrow DCs; test: Marker expression of bone marrow DCs with or without Poly I:C (flow cytometry); format: cell-based, C57Bl6 mice; conditions: 60 h
Experimental: DCs were obtained from the bone marrow of 6 to 8-week-old C57Bl6 mice. Briefly, femora and tibiae from mice were removed and stripped of muscles and tendons; both bone ends were cut and bone marrow was flushed out with RPMI 1640 medium using a 21-gauge needle and syringe. Cell clusters were dissociated by passing through a cell strainer and 0.45 M ammonium chloride was added for red cell lysis. After washing the cell suspension twice in RPMI 1640, 10×10^6 bone marrow cells per well were cultured in non-treated tissue-culture 6-well plates with 4 ml of complete medium (RPMI 1640 supplemented with 2 mM glutamine, 10,000 U/mL penicillin, 10 mg/mL streptomycin, 50 μM 2-mercaptoethanol, 10% heat-inactivated fetal calf serum with GM-CSF (50 ng/ml). Half of the medium was removed on day 2 and new medium supplemented with GM-CSF (100 ng/ml) and warmed at 37° C. was added. The culture medium was entirely discarded on day 3 and replaced by fresh warmed medium with GM-CSF (50 ng/ml). On day 6, non-adherent cells in the culture supernatant and loosely adherent cells harvested by gentle washing with PBS were pooled and used as the starting cell source for the experiments.
For murine cell analysis, these were stained in ice-cold PBS containing BSA (0.5%) and EDTA (2 mM) using appropriate antibody-fluorophore conjugates. Multiparameter analysis was performed on a BD FACSCanto II analyzer (BD Biosciences) and analyzed with FlowJo software (Tree Star). The following antibodies were used: anti-MHC Class II, anti-CD11c, anti-CD8a, anti-CD3e, anti-CD4, anti-CD86, anti-CD40, anti-CD80, Prior to acquisition, cells were resuspended in PBS/BSA 0.5%/EDTA (2 mM).
DCs were centrifuged and washed once with MACS buffer. Cells (10^6) were resuspended in 45 μl of buffer and 5 μl of antibodies/fluorophore, CD11c APC, MHC II PE, CD80 FITC, CD86 VioBlue and CD40 PE. The samples were acquired in BD FACS Canto II using the FacsDiva software. The data were analyzed by using the FlowJo software.

[6] = test system: colorectal CT26 carcinoma cells; test: Subcutaneous syngeneic colorectal carcinoma model; format: in vivo, Balb/c mice
[7] = 100 μg/ml peptide + 12.5 μg/ml Poly I:C

In the case of “[CAEATYWRRGGQAAGFTC], NH2 (C-C) (CAEATYWRRGGQAAGFTC-NH2; disulfide 1-18 (inferred)) [Scr1, cyclic scramble peptide of Rb9]”, the “activity against metastatic melanoma of scramble peptides” value [1] is reported as “activity similar to Rb9”.

For [AARGETARATFAYWGQG], NH2 [Rb10A1], the “cytokine production in splenocytes (generally)” value (splenocytes) was “downregulated”, the “IL-12 production in splenocytes” value (splenocytes; no stimulus necessary) was “comparable in the three groups” and the CD40 expression [2] was “regulated CD40 expression”. The “expression of CD80 and CD86” value ([2]; Rb9 mainly at 50 μg/ml) was “significantly stimulated”, the “protective effect of peptide-stimulated DCs (lung melanotic nodules)” value [3] was “also protective against melanoma in the metastatic model but less effectively than Rb9” and the “TGF-beta in tumor-lysate stimulated CD11c+ cells from the spleen” value (CD11c+ cells) was “markedly inhibited”. The “TGF-beta secreted by lymph node CD11c+ cells” value (CD11c+ cells; vs vehicle (PBS) control cells stimulated by melanoma lysate) was “fully inhibited” and the “proportion of T-CD8+ to T-CD4+ cells” value [4] was “T-CD8+ cells greatly predominated over T-CD4+ effector cells”.

With [RATFAYWG], NH2 [Rb9-MID] the “CD40 expression over Poly I:C” value [5, 7] was “stimulated CD40 over Poly I:C much like Rb9”, the “expression of MHC II over Poly I:C and Rb9” value [5, 7] was “significantly increased” and the “expression of CD80” value ([5]; 100 μg/ml peptide, with or without Poly I:C) was “similar”.

Poly I:C [reference compound] was tested, and the “antitumor activity (pulmonary nodules)” value ([1]; i.p., 15 days after challenge) was “strongly active” and the “antitumor activity of Poly I:C combined with Rb9” value ([1]; i.p., 15 days after challenge) was “strongly active”.

For “[CETWRGAATRGAFQAYGC], NH2 (C-C) (CETWRGAATRGAFQAYGC-NH2; disulfide 1-18 (inferred)) [Scr3, cyclic scramble peptide of Rb9]”, the “activity against metastatic melanoma of scramble peptides” value [1] was “good negative control”.

With `CC(C)Cn1cnc2c(N)nc3ccccc3c21` [Imiquimod, reference compound] the “antitumor activity (pulmonary nodules)” value ([1]; i.p., 15 days after challenge) was “Antitumor activities of Rb9 and Imiquimod were the same”.

“[CARGETARATFAYWGQG], NH2 (CARGETARATFAYWGQG-NH2) [Rb10, linear peptide lacking terminal cysteine]” was tested, and the subcutaneous tumor growth ([6]; CT26 cells of high virulence (Argentina cell line), 5 alternate days) was “delayed” and the survival time ([6]; CT26 cells of high virulence, H-2^d syngeneic animals) was “prolonging the survival time”.
